ChEMBL document CHEMBL1201862, “PubChem BioAssay data set” (2004)
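1) Cells in 96-well plates. 2) Compound, 48 h, 5 concentrations. 3) Linear interpolation between surrounding doses. 4) Unreached endpoint = highest concentration. At the GI50, growth is halved.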 Activity calls are given as the source filed them. Cut-off read from the data, not from the text of the source: active = GI50 up to about 1.1 µM and inactive = higher.

What was measured:
Test in all cases: growth of human tumour cells (NCI), 48 h
KM-20L2 = test system: KM-20L2
SNB-78 = test system: SNB-78
M19-MEL = test system: M19-MEL
LXFL 529 = test system: LXFL 529
XF498 = test system: XF498
DMS-273 = test system: DMS-273
DMS-114 = test system: DMS-114
RXF 631 = test system: RXF 631
HOP-18 = test system: HOP-18

Structure (SMILES)	GI50 (KM-20L2)	GI50 (SNB-78)	GI50 (M19-MEL)	GI50 (LXFL 529)	GI50 (XF498)	GI50 (DMS-273)	GI50 (DMS-114)	GI50 (RXF 631)	GI50 (HOP-18)
O=C1NCC2=C1CCC1c3ccccc3CCN21 (configuration not stated)	> 100 µM (inactive)	> 100 µM (inactive)	> 100 µM (inactive)	> 100 µM (inactive)	> 100 µM (inactive)	> 100 µM (inactive)	> 100 µM (inactive)		
CC(=O)CC(=O)OC1CC(C)CCC1C(C)C (configuration not stated)		> 100 µM (inactive)	34.6 µM (inactive)	89.5 µM (inactive)	> 100 µM (inactive)	41.9 µM (inactive)	37.2 µM (inactive)	> 100 µM (inactive)	
O=c1[nH]c(=O)n([C@H]2C[C@@H](CO)[C@@H](O)C2)cc1I	> 100 µM (inactive)	> 100 µM (inactive)	> 100 µM (inactive)	> 100 µM (inactive)		> 100 µM (inactive)	> 100 µM (inactive)		> 100 µM (inactive)
Cc1ccc(-n2nc(C(OC3OC(CO)C(O)C(O)C3O)C(O)CO)c3nc4cc(C)c(C)cc4nc32)cc1 (configuration not stated)	> 100 µM (inactive)	> 100 µM (inactive)	> 100 µM (inactive)	> 100 µM (inactive)	> 100 µM (inactive)		> 100 µM (inactive)	> 100 µM (inactive)	
CC1(C)OCC([C@H]2CC23SCCCS3)O1 (some centres not stated)	> 100 µM (inactive)	> 100 µM (inactive)		> 100 µM (inactive)	> 100 µM (inactive)	> 100 µM (inactive)	> 100 µM (inactive)		> 100 µM (inactive)
N#CC(/C(CCC(=O)Nc1ccc(Cl)cc1)=N/NC(=O)c1cc2ccccc2cc1O)c1ccccc1 (configuration not stated)	28.6 µM (inactive)	66.1 µM (inactive)	33.7 µM (inactive)	43 µM (inactive)	54.8 µM (inactive)		25.4 µM (inactive)		21.5 µM (inactive)
CCCC(=O)N[C@H]1C2C3CC4C5CC(C42)C1(C)C53 (some centres not stated)	> 100 µM (inactive)	> 100 µM (inactive)	> 100 µM (inactive)			> 100 µM (inactive)			> 100 µM (inactive)
COC(=O)C1=NC(=S)NC(c2ccccc2)C1c1nc2ccccc2s1 (configuration not stated)	> 100 µM (inactive)	> 100 µM (inactive)	> 100 µM (inactive)	> 100 µM (inactive)		> 100 µM (inactive)	> 100 µM (inactive)	> 100 µM (inactive)	> 100 µM (inactive)
Cn1ccnc1CCc1ccc(Cl)cc1Cl	> 100 µM (inactive)	> 100 µM (inactive)	> 100 µM (inactive)	> 100 µM (inactive)		> 100 µM (inactive)	56.8 µM (inactive)	> 100 µM (inactive)	> 100 µM (inactive)
CC(=O)O[C@H]1[C@@H]2[C@@H]3[C@@H](C[C@H]1C)[C@@H](C)CO[C@@]1(C)CC/C=C(/C)C[C@@H]2O[C@@H]31	> 100 µM (inactive)		> 100 µM (inactive)	> 100 µM (inactive)	> 100 µM (inactive)	> 100 µM (inactive)	> 100 µM (inactive)	> 100 µM (inactive)	> 100 µM (inactive)
O=C(NCCCCCCNC(=O)OCCSCCn1cc(C(=O)NC(=O)OCc2ccccc2)c(=O)[nH]c1=O)OCCSCCn1cc(C(=O)NC(=O)OCc2ccccc2)c(=O)[nH]c1=O	> 100 µM (inactive)	> 100 µM (inactive)	> 100 µM (inactive)	> 100 µM (inactive)	> 100 µM (inactive)	> 100 µM (inactive)	> 100 µM (inactive)	> 100 µM (inactive)	
CCCCNCC(=O)O[C@]1(CC)C(=O)OCc2c1cc1n(c2=O)Cc2cc3ccccc3nc2-1	1.24 µM (inactive)	2.43 µM (inactive)	0.63 µM (active)	3.21 µM (inactive)	0.305 µM (active)	< 0.01 µM (active)	0.121 µM (active)	1.7 µM (inactive)	0.44 µM (active)
O=C(/C=C/c1ccco1)c1ccc(NCc2nc3ccccc3[nH]2)cc1	18.7 µM (inactive)	21.3 µM (inactive)	14.9 µM (inactive)	14.3 µM (inactive)		17.5 µM (inactive)	12 µM (inactive)		20.9 µM (inactive)
CCOC(=O)Nc1ccc2c(c1)N(C(=O)CCN(CC)CC)c1ccccc1S2 [ETHACIZINE]	19.3 µM (inactive)	5.18 µM (inactive)	32.1 µM (inactive)	19 µM (inactive)	18.1 µM (inactive)	27 µM (inactive)	18.2 µM (inactive)		42 µM (inactive)
O=C(O)CCC(=O)Oc1ccc(O)c2c1CCCC2=O	> 100 µM (inactive)	> 100 µM (inactive)	> 100 µM (inactive)	> 100 µM (inactive)	0.316 µM (active)	> 100 µM (inactive)	> 100 µM (inactive)		> 100 µM (inactive)
COc1ccc(NC(=O)CC/C(CC(=O)c2ccco2)=N/NC(N)=S)cc1	> 100 µM (inactive)	> 100 µM (inactive)	> 100 µM (inactive)	> 100 µM (inactive)	> 100 µM (inactive)	> 100 µM (inactive)	> 100 µM (inactive)	> 100 µM (inactive)	> 100 µM (inactive)
COc1ccc2nc3ccccc3c(NCCCCCCN(C)CCCl)c2c1	0.172 µM (active)	0.33 µM (active)	0.308 µM (active)	0.262 µM (active)	0.2 µM (active)	0.0488 µM (active)	0.166 µM (active)		
CCN(CC)CC[n+]1ccc2c(C)c3[nH]c4ccc(O)cc4c3c(C)c2c1	8.47 µM (inactive)	3.5 µM (inactive)	1.21 µM (inactive)	2.5 µM (inactive)		2.92 µM (inactive)	0.767 µM (active)		4.23 µM (inactive)
CCOC(=O)C1CC(=O)C=C2CCCCC21 (configuration not stated)		> 100 µM (inactive)	> 100 µM (inactive)	> 100 µM (inactive)	> 100 µM (inactive)	> 100 µM (inactive)	> 100 µM (inactive)	> 100 µM (inactive)	
CCCCCCCCC[C@@H]1CC(=O)OCC2OC(O[C@H](CCCCCCCCC)CC(=O)OCC3OC(O[C@H](CCCCCCCCC)CC(=O)OCC4OC(O1)C(O)C(O)C4O)C(O)C(O)C3O)C(O)C(O)C2O (some centres not stated)	6.46 µM (inactive)	17.3 µM (inactive)	4.42 µM (inactive)	6.53 µM (inactive)	7.74 µM (inactive)	8.65 µM (inactive)	8.89 µM (inactive)		< 0.01 µM (active)
C[C@H]1CC[P+](Cc2ccccc2)(c2ccccc2)C1 (some centres not stated)	93.5 µM (inactive)		26.8 µM (inactive)	26.4 µM (inactive)	< 0.01 µM (active)	> 100 µM (inactive)	23 µM (inactive)		> 100 µM (inactive)
CC[C@@H]1OC2(C)CC(S(=O)(=O)c3ccccc3O)CC1O2 (some centres not stated)	> 100 µM (inactive)		> 100 µM (inactive)	> 100 µM (inactive)		> 100 µM (inactive)		> 100 µM (inactive)	> 100 µM (inactive)
CC1(C)CC(=O)C(C(=O)Nc2cccs2)=C(O)C1	38.2 µM (inactive)	36.1 µM (inactive)	41.2 µM (inactive)	31.8 µM (inactive)	43 µM (inactive)	25.2 µM (inactive)		36.5 µM (inactive)	21.6 µM (inactive)
COCCOCOC(C)(C)[C@H](CCOC(C)=O)O[Si](c1ccccc1)(c1ccccc1)C(C)(C)C	18.7 µM (inactive)	22.9 µM (inactive)	13.1 µM (inactive)	7.33 µM (inactive)		5.3 µM (inactive)	12.6 µM (inactive)	13.4 µM (inactive)	30.3 µM (inactive)
Cc1ccc(Nc2nc3c(s2)C(=O)c2ccccc2C3=O)c(C)c1	37.3 µM (inactive)	15.2 µM (inactive)	2.37 µM (inactive)	15 µM (inactive)	17.3 µM (inactive)	19.6 µM (inactive)	8.59 µM (inactive)		4.57 µM (inactive)
COc1ccc2c(c1)Oc1cc(O)ccc1[C@H]2c1ccccc1C(=O)NC(C)c1ccccc1 (some centres not stated)	19.1 µM (inactive)	16.6 µM (inactive)	15.7 µM (inactive)	15.3 µM (inactive)		14.5 µM (inactive)	11.5 µM (inactive)		
O=C1NC(Cc2ccc(O)cc2)C(=O)N2CCCC12 (configuration not stated)	> 100 µM (inactive)	> 100 µM (inactive)	> 100 µM (inactive)	> 100 µM (inactive)		> 100 µM (inactive)	> 100 µM (inactive)	> 100 µM (inactive)	> 100 µM (inactive)
COc1ccc(/C=C2\CCC(Cc3ccccc3)(CN(C)C)C2=O)cc1 (configuration not stated)	23.4 µM (inactive)	35.5 µM (inactive)	28.4 µM (inactive)	36.1 µM (inactive)		15.2 µM (inactive)	18.2 µM (inactive)		> 100 µM (inactive)
